Reference: publication PMC12469269, “Investigating SMR Peptide Interactions with Breast Cancer-Associated Proteins” (International Journal of Molecular Sciences, 2025)
Entries after “also recorded” stand apart in the source; their conditions may differ.

Key:
Mortalin = assay: SPR competition: SMRwt binding to immobilized Mortalin with Mortalin peptides; design: species or system Human; details: 20 µM SMRwt + 20 µM Mortalin peptide, 25 °C, HBS-P pH 7.4
Experimental: Both Vimentin and Mortalin were immobilized as ligands. We used 20 µM of SMRwt alone and 20 µM of Mortalin peptides alone, and their mixtures were used as analytes.
Figure 9 Competitive binding of SMR and Mortalin peptides to Vimentin and Mortalin proteins. Binding of SMRwt to immobilized Vimentin in the presence and absence of (A) Mortalin peptide #56, (B) Mortalin peptide #61, and (C) Mortalin peptide #62. Binding of SMRwt to immobilized Mortalin in the presence and absence of (D) Mortalin peptide #56, (E) Mortalin peptide #61, and (F) Mortalin peptide #62. SMRwt alone, as well as a mixture of His-tagged Mortalin peptides #56, #61, and #62 were injected as analytes to flow over the immobilized ligand surfaces. […] Vimentin and Mortalin proteins were immobilized as ligands on a CM5 sensor chip using standard amine coupling chemistry.
SPR experiments were conducted using a Biacore T200 instrument (Cytiva, Marlborough, MA, USA). CM5 sensor chips (Cytiva) were used to immobilize proteins and run subsequent binding assays at 25 °C. To investigate the direct binding of Nef and SMR peptides to Vimentin and Mortalin and SMR competition studies, both proteins were immobilized as ligands on the active flow cells (FCs) using standard amine coupling chemistry. […] Sensorgrams recorded for kinetics analyses were fitted to a 1:1 binding model using the Biacore T200 evaluation software version 3.2.1. […]

MDA-MB-231 cells = assay: Tumor exosome secretion, Mortalin scanning peptides (Figure 5B), MDA-MB-231; type: cell-based, human; details: MDA-MB-231 exosome experiment
[1] = molecular target: T1, Recombinant Human GRP75/HSPA9B/Mortalin His Protein (Homo sapiens, UniProt P38646); assay: biochemical; type: binding; details: SPR, 25 °C, HBS-P pH 7.4
T1 construct: His; purchased Novus Biologicals, LLC/R&D Systems NBC1-18380
T1 sequence (P38646 47-679): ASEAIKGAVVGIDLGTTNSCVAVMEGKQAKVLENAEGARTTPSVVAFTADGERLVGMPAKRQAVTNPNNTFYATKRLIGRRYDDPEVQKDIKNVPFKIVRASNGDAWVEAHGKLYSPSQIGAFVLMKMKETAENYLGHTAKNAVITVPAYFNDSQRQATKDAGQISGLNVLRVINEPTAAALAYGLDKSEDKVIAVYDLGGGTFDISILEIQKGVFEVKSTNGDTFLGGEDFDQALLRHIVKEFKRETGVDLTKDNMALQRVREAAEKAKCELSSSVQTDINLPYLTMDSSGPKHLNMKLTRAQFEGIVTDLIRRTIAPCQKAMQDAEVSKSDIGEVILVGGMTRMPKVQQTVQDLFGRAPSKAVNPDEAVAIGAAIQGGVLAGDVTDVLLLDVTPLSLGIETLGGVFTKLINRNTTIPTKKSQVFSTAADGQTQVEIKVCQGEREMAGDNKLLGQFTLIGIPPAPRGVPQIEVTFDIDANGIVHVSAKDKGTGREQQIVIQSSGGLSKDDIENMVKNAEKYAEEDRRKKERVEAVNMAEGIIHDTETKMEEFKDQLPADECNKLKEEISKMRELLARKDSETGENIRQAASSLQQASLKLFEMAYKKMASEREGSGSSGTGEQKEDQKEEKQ
Excerpt: (§1) We conducted SPR experiments to characterize and quantify the direct binding interactions between Nef and SMR peptides (the analytes) and the target proteins, Vimentin and Mortalin (the immobilized ligands). We did so by injecting the analytes at various concentrations over the chip surface with the immobilized ligands.
(§2) Recombinant Human Vimentin Protein, CF (catalog # 2105-VI-100), Recombinant Human GRP75/HSPA9B/Mortalin His Protein (catalog # NBC1-18380), and Recombinant Human HSPA8/HSC71/Hsc70 His Protein (Catalog # NBPI-30278) were purchased from Novus Biologicals, LLC/R&D Systems, Centennial, CO, USA. These proteins were used for SPR.
(§3) SPR experiments were conducted using a Biacore T200 instrument (Cytiva, Marlborough, MA, USA). CM5 sensor chips (Cytiva) were used to immobilize proteins and run subsequent binding assays at 25 °C. To investigate the direct binding of Nef and SMR peptides to Vimentin and Mortalin and SMR competition studies, both proteins were immobilized as ligands on the active flow cells (FCs) using standard amine coupling chemistry. One reference FC was prepared using the same surface chemistry, and no proteins were immobilized onto this reference FC. Vimentin was immobilized to a level of ~2500 RU to 7200 RU in the presence of 4 mM of HCl and Mortalin to a level of ~11,900 RU to 13,200 RU in the presence of 10 mM of sodium acetate buffer at pH 4.5. Analytes were then injected (Nef, SMR peptides, Mortalin peptides, and mixtures of […]). One 20 s pulse of 1:500 H3PO4 (H3PO4:ddH2O) was injected for surface regeneration. To investigate the direct binding of Mortalin peptides to Nef, Nef was immobilized as a ligand to ~450 RU using thiol coupling chemistry. A reference FC was created using a method similar to the one above. Mortalin peptides were then injected as analytes. One 20 s pulse of 1 M NaCl was injected for surface regeneration. HBS-P (10 mM Hepes, pH 7.4; 150 mM NaCl; 0.05% surfactant P20) was used as the immobilization running buffer during the immobilization of all ligands. HBS-P was also used to dilute analytes and as a running buffer during all analyte–ligand binding assays. SPR data used for analysis was both blank (signals due to HBS-P only) and reference-subtracted (signals corresponding to reference FCs). Sensorgrams recorded for kinetics analyses were fitted to a 1:1 binding model using the Biacore T200 evaluation software version 3.2.1. GraphPad Prism version 10.4.0 was used to plot all graphs.

[2] = molecular target: T2, Recombinant Human Vimentin Protein (Homo sapiens, UniProt P08670); assay: biochemical; type: binding; details: SPR, 25 °C, HBS-P pH 7.4
T2 construct: purchased Novus Biologicals, LLC/R&D Systems 2105-VI-100
T2 sequence (P08670 whole entry): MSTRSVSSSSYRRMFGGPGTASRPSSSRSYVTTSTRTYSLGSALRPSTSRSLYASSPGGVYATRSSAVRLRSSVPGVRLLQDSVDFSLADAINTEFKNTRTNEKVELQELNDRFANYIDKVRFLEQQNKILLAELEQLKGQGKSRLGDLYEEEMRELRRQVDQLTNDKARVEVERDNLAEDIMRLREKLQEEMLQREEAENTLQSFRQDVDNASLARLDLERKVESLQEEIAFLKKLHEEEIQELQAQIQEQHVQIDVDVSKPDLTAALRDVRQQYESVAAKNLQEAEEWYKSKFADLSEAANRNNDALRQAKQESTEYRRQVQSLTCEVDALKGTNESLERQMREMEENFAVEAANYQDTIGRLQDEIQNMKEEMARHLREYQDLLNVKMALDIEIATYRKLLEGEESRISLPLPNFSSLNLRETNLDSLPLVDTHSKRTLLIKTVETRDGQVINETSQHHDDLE
Excerpt: as §1, §2, §3

Mortalin (Grp-75) = assay: Co-immunoprecipitation / Western blot, Mortalin; type: binding, human; details: MDA-MB-231, MCF-7, BT474 lysates; anti-FLAG M2 resin, 4 °C overnight
Experimental: MDA-MB-231, MCF-7, and BT474 BC cells were grown in RPMI 1640 medium containing 10% FBS at 37 °C in a T-75 tissue culture flask and collected via centrifugation at 1000× g for 20 min at 4 °C. The cell pellet was resuspended in 1 mL of 1X PBS and transferred to a 1.5 mL Eppendorf tube. Following microcentrifugation at 1000× g for 1 min, the pellet was resuspended in 1 mL of α-FLAG Lysis buffer through gentle pipetting (50 mM Tris HCl, pH 7.4; 150 mM sodium chloride [NaCl]; 1 mM EDTA; and 1% Triton X-100, with 1 mM phenylmethyl sulfonyl fluoride [PMSF] and 10 µL/mL Protease Inhibitor Cocktail with mammalian cell and tissue extracts [PIC; Sigma-Aldrich] added immediately before use). The suspension was differentially microcentrifuged at 2000× g for 5 min and at 13,000× g for 10 min to pellet the cell debris and DNA, respectively, and the supernatant (hereafter referred to as the Lysate) was collected. In total, 1 milligram of Lysate protein and 1 milligram of the SMRwt or SMRmut peptide were added to 20 µL of Anti-FLAG® M2 Affinity Gel (resin; Sigma). […]
Cell proteins were analyzed using Western blot analysis, as described previously. […] Protein bands were detected using Western blotting Luminol Reagent (Santa Cruz Biotechnology, Inc., Santa Cruz, CA, USA). […]

DQLPADECNKLKEEISKMRE [#61, Mortalin scanning peptide 61]
inhibition of SMRwt–Mortalin binding, in words (Mortalin; listed as Mortalin #61): effectively compete with SMRwt to block its interaction with the Mortalin or Vimentin protein
inhibition of SMRwt–Mortalin binding, in words (Mortalin; listed as Mortalin peptide #61): inhibited SMRwt binding to both Mortalin and Vimentin; also recorded: completely blocks the 20 µM SMRwt from binding to both Vimentin and Mortalin; also recorded: complete inhibition
cluster formation (MDA-MB-231 cells): formed small clusters

^66Ala-Gly-Phe-Pro-Val^70 [SMRmut, 5-mer negative control, Val66 changed to Ala]
binding to Mortalin, in words [1]: did not produce a meaningful positive binding response to Vimentin and Mortalin; also recorded: does not bind to the Mortalin protein
binding response to Vimentin, in words [2]: did not produce a meaningful positive binding response to Vimentin and Mortalin
co-immunoprecipitation with Mortalin, in words (Mortalin (Grp-75)): not SMRmut, co-immunoprecipitated with Mortalin
